For one experiment, the system named is MV-4-11 cells. The experiment is described as follows: Cell growth inhibition assay (CellTiter-Glo), MV-4-11. Format: cell-based. As to conditions: Homo sapiens, MV4-11. The essentials: (§1)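 Cellular ATP (CellTiter-Glo luminescence) measured after 4 days at 37° C., 5% CO2 of compound exposure, top concentration 10 μM in 3-fold steps, 0.1% DMSO. Readings corrected for no-cell background and a day-0 plate, normalised to vehicle and medium wells; half-maximal and total growth inhibition from four-parameter curves.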

The subject of the next experiment is THP-1 cells. The experiment can be described thus: Cell growth inhibition assay (CellTiter-Glo), THP-1. In kind it is cell-based. As to conditions: Homo sapiens. The essentials: as §1
In the next experiment the test system is K-562 cells. The experiment can be described thus: Cell growth inhibition assay (CellTiter-Glo), K-562. Format: cell-based, human. As to conditions: for GI50: Homo sapiens, K562. The method in brief:
as §1

In the case of `CC(=O)Nc1cc(N2C(=O)c3c(c(C)nn3C3CC3)C2c2ccc(Cl)cc2)nn2c(C)nnc12` (stereo not drawn) [Example 126, N-(6-(4-(4-chlorophenyl)-1-cyclopropyl-3-methyl-6-oxopyrrolo[3,4-c]pyrazol-5-(1H,4H,6H)-yl)-3-methyl-[1,2,4]triazolo[4,3-b]pyridazin-8-yl)acetamide], the values for the GI50 in the experiment on MV-4-11 cells, in the experiment with THP-1 cells and in the experiment with K-562 cells were 404 nM, 576 nM and 4150 nM, respectively.

`Cc1cc(N2C(=O)c3nn(C)c(O)c3C2c2ccc(Cl)cc2)cn(C)c1=O` (stereo not drawn) [Example 73, 4-(4-chlorophenyl)-5-(1,5-dimethyl-6-oxo-1,6-dihydropyridin-3-yl)-3-hydroxy-2-methyl-4,5-dihydropyrrolo[3,4-c]pyrazol-6(2H)-one]: the GI50 with MV-4-11 cells was 3020 nM; with THP-1 cells it was greater than 10000 nM; in the experiment on K-562 cells, greater than 10000 nM.

As for `CCc1nn(C2CC2)c2c1C(c1ccc(Cl)cc1)N(c1cc(C)c(=O)n(C)c1)C2=O` (stereo not drawn) [Example 69, 4-(4-chlorophenyl)-1-cyclopropyl-5-(1,5-dimethyl-6-oxo-1,6-dihydropyridin-3-yl)-3-ethyl-4,5-dihydropyrrolo-[3,4-c]pyrazol-6(1H)-one], the GI50 was determined as 27.4 nM in the experiment with MV-4-11 cells, 44.2 nM in the experiment on THP-1 cells and 135 nM in the experiment on K-562 cells.

Regarding `Cc1nn(C2CC2)c2c1[C@@H](c1ccc(Cl)cc1)N(c1cc(Cl)c(=O)n(C)c1)C2=O` [Example 51, (R)-5-(5-chloro-1-methyl-6-oxo-1,6-dihydropyridin-3-yl)-4-(4-chlorophenyl)-1-cyclopropyl-3-methyl-4,5-dihydropyrrolo-[3,4-c]pyrazol-6(1H)-one], the GI50 with MV-4-11 cells stood at 51.9 nM; in the experiment on THP-1 cells it was 72.5 nM; in the experiment on K-562 cells it was 318 nM.

In the case of `Cc1cc(N2C(=O)c3c(c(C4CC4)nn3-c3ccnn3C)C2c2ccc(Cl)cc2)cn2c(C)nnc12` (stereo not drawn) [Example 117, 4-(4-chlorophenyl)-3-cyclopropyl-5-(3,8-dimethyl-[1,2,4]triazolo[4,3-a]pyridin-6-yl)-1-(1-methyl-1H-pyrazol-5-yl)-4,5-dihydropyrrolo-[3,4-c]pyrazol-6(1H)-one], the figures for the GI50 with MV-4-11 cells, in the experiment with THP-1 cells and in the experiment with K-562 cells were 18.6 nM, 31.8 nM and 150 nM, respectively.

As for `Cc1nn(C2CC2)c2c1C(c1ccc(Cl)cc1)N(c1ccc3nnn(C)c3n1)C2=O` (stereo not drawn) [Example 102, 4-(4-chlorophenyl)-1-cyclopropyl-3-methyl-5-(3-methyl-3H-[1,2,3]triazolo[4,5-b]-pyridin-5-yl)-4,5-dihydropyrrolo-[3,4-c]pyrazol-6(1H)-one], the GI50 turned out to be 87.5 nM in the experiment with MV-4-11 cells, 140 nM in the experiment with THP-1 cells and 653 nM in the experiment with K-562 cells.

`COc1ncccc1-n1nc(C)c2c1C(=O)N(c1cc(C)c(=O)n(C)c1)[C@@H]2c1ccc(Cl)cc1` [Example 128, (R)-4-(4-chlorophenyl)-5-(1,5-dimethyl-6-oxo-1,6-dihydropyridin-3-yl)-1-(2-methoxypyridin-3-yl)-3-methyl-4,5-dihydropyrrolo-[3,4-c]pyrazol-6(1H)-one]: the GI50 in the experiment with MV-4-11 cells came out at 34.5 nM; with THP-1 cells, 64.6 nM; with K-562 cells it was 183 nM. This compound returned an IC (TGI) with K-562 cells greater than 10000 nM.

In the case of `Cc1nn(C2CC2)c2c1C(c1cccc(C(F)(F)F)c1)N(c1cc(C)c(=O)n(C)c1)C2=O` (stereo not drawn) [Example 96, 1-cyclopropyl-5-(1,5-dimethyl-6-oxo-1,6-dihydropyridin-3-yl)-3-methyl-4-(3-(trifluoromethyl)phenyl)-4,5-dihydropyrrolo[3,4-c]pyrazol-6(1H)-one], the GI50 with MV-4-11 cells is 894 nM; in the experiment with THP-1 cells, 1260 nM; in the experiment with K-562 cells, 5900 nM.

Turning to `CCc1c2c(nn1CCO)C(=O)N(c1cc(C)c3onc(C)c3c1)C2c1ccc(Cl)cc1` (stereo not drawn) [Example 80, 4-(4-chlorophenyl)-5-(3,7-dimethylbenzo[d]isoxazol-5-yl)-3-ethyl-2-(2-hydroxyethyl)-4,5-dihydropyrrolo[3,4-c]pyrazol-6(2H)-one], the GI50 with MV-4-11 cells was found to be 356 nM; in the experiment on THP-1 cells, 354 nM; in the experiment with K-562 cells it was 868 nM.

On to `Cc1n[nH]c2c1C(c1ccc(Cl)cc1F)N(c1cc(C)c3nnc(C)n3c1)C2=O` (stereo not drawn) [Example 183, 4-(4-chloro-2-fluorophenyl)-5-(3,8-dimethyl-[1,2,4]triazolo[4,3-a]pyridin-6-yl)-3-methyl-4,5-dihydropyrrolo-[3,4-c]pyrazol-6(2H)-one], for which the GI50 with MV-4-11 cells came out at 76.1 nM; in the experiment with THP-1 cells it was 135 nM; in the experiment with K-562 cells, 659 nM.

With `Cc1nn(-c2ccnn2C)c2c1C(c1ccc(Cl)cc1)N(c1cc(C)c3nnc(C)n3c1)C2=O` (stereo not drawn) [Example 90, 4-(4-chlorophenyl)-5-(3,8-dimethyl-[1,2,4]triazolo[4,3-a]pyridin-6-yl)-3-methyl-1-(1-methyl-1H-pyrazol-5-yl)-4,5-dihydropyrrolo[3,4-c]pyrazol-6(1H)-one], the GI50 in the experiment with MV-4-11 cells worked out at 25.5 nM; with THP-1 cells, 51 nM; in the experiment with K-562 cells, 276 nM.

In the case of `Cc1nn(C2CC2)c2c1[C@@H](c1ccc(Cl)cc1)N(c1cc(C)c3nnc(C)n3n1)C2=O` [Example 122, (R)-4-(4-chlorophenyl)-1-cyclopropyl-5-(3,8-dimethyl-[1,2,4]triazolo[4,3-b]-pyridazin-6-yl)-3-methyl-4,5-dihydropyrrolo[3,4-c]pyrazol-6(1H)-one], the concentration for 50% growth inhibition (GI50) in the experiment with MV-4-11 cells was 3.41 nM; with THP-1 cells, 4.32 nM; in the experiment on K-562 cells it was 24.1 nM.

For the compound `CCOC(=O)N1CC(n2nc(C)c3c2C(=O)N(c2cc(C)c(=O)n(C)c2)C3c2ccc(Cl)cc2)C1` (stereo not drawn) [Example 155, Ethyl 3-(4-(4-chlorophenyl)-5-(1,5-dimethyl-6-oxo-1,6-dihydropyridin-3-yl)-3-methyl-6-oxo-5,6-dihydropyrrolo[3,4-c]pyrazol-1(4H)-yl)azetidine-1-carboxylate], the figures for the GI50 in the experiment with MV-4-11 cells, in the experiment with THP-1 cells and with K-562 cells were 73.4 nM, 120 nM and 638 nM, respectively.

Regarding `Cc1nn(-c2ccnn2C)c2c1[C@@H](c1ccc(Cl)cc1)N(c1cc(C)c(=O)n(C)c1)C2=O` [Example 120, (R)-4-(4-chlorophenyl)-5-(1,5-dimethyl-6-oxo-1,6-dihydropyridin-3-yl)-3-methyl-1-(1-methyl-1H-pyrazol-5-yl)-4,5-dihydropyrrolo-[3,4-c]pyrazol-6(1H)-one], the concentration for 50% growth inhibition (GI50) in the experiment on MV-4-11 cells was determined as 55.7 nM; in the experiment with THP-1 cells, 79.2 nM; in the experiment with K-562 cells, 402 nM. The compound also came in with an IC (TGI) with K-562 cells greater than 10000 nM.

In the case of `Cc1nn(C[C@H](O)C(F)(F)F)c2c1[C@@H](c1ccc(Cl)cc1)N(c1cc(C)c3nnc(C)n3c1)C2=O` [Example 167, (R)-4-(4-chlorophenyl)-5-(3,8-dimethyl-[1,2,4]triazolo[4,3-a]pyridin-6-yl)-3-methyl-1-((S)-3,3,3-trifluoro-2-hydroxypropyl)-4,5-dihydropyrrolo-[3,4-c]pyrazol-6(1H)-one], the GI50 was determined as 27.6 nM in the experiment on MV-4-11 cells, 59.6 nM with THP-1 cells and 294 nM in the experiment on K-562 cells.

`Cc1nn(C2CNC2)c2c1C(c1ccc(Cl)cc1)N(c1cc(C)c3nnc(C)n3c1)C2=O` (stereo not drawn) [Example 151, 1-(azetidin-3-yl)-4-(4-chlorophenyl)-5-(3,8-dimethyl-[1,2,4]triazolo[4,3-a]pyridin-6-yl)-3-methyl-4,5-dihydropyrrolo[3,4-c]pyrazol-6(1H)-one]: the GI50 worked out at 226 nM in the experiment with MV-4-11 cells, 778 nM with THP-1 cells and 2610 nM in the experiment on K-562 cells.

In the case of `Cc1nn(C2COC2)c2c1C(c1ccc(Cl)cc1)N(c1cc(C)c(=O)n(C)c1)C2=O` (stereo not drawn) [Example 135, 4-(4-chlorophenyl)-5-(1,5-dimethyl-6-oxo-1,6-dihydropyridin-3-yl)-3-methyl-1-(oxetan-3-yl)-4,5-dihydropyrrolo-[3,4-c]pyrazol-6(1H)-one], the GI50 with MV-4-11 cells was found to be 79.9 nM; in the experiment with THP-1 cells, 86.1 nM; with K-562 cells, 616 nM.

In the case of `Cc1nn(C2CC2)c2c1C(c1ccc(Cl)cc1)N(c1cc(C)c3nnn(C)c3n1)C2=O` (stereo not drawn) [Example 110, 4-(4-chlorophenyl)-1-cyclopropyl-5-(3,7-dimethyl-3H-[1,2,3]triazolo[4,5-b]pyridin-5-yl)-3-methyl-4,5-dihydropyrrolo-[3,4-c]pyrazol-6(1H)-one], the GI50 in the experiment on MV-4-11 cells was 5.25 nM; with THP-1 cells it was 10.6 nM; in the experiment on K-562 cells, 50.3 nM.

Turning to `COc1ccccc1-n1nc(C)c2c1C(=O)N(c1cc(C)c3nnc(C)n3c1)C2c1ccc(F)cc1F` (stereo not drawn) [Example 177, 4-(2,4-difluorophenyl)-5-(3,8-dimethyl-[1,2,4]triazolo[4,3-a]pyridin-6-yl)-1-(2-methoxyphenyl)-3-methyl-4,5-dihydropyrrolo-[3,4-c]pyrazol-6(1H)-one], the GI50 was found to be 67.5 nM in the experiment on MV-4-11 cells, 64.4 nM with THP-1 cells and 331 nM in the experiment on K-562 cells.

As for `Cc1cc(N2C(=O)c3nn(C(C)C)c(C)c3C2c2ccc(Cl)cc2)cn(C)c1=O` (stereo not drawn) [Example 64, 4-(4-chlorophenyl)-5-(1,5-dimethyl-6-oxo-1,6-dihydropyridin-3-yl)-2-isopropyl-3-methyl-4,5-dihydropyrrolo-[3,4-c]pyrazol-6(2H)-one], the 50% growth inhibitory concentration (GI50) with MV-4-11 cells was determined as 27.6 nM; with THP-1 cells, 64.8 nM; with K-562 cells, 292 nM.

Turning to `COc1ncc(-n2nc(C)c3c2C(=O)N(c2cc(C)c(=O)n(C)c2)[C@H]3c2ccc(Cl)cc2)c(OC)n1` [Example 99, (S)-4-(4-chlorophenyl)-1-(2,4-dimethoxypyrimidin-5-yl)-5-(1,5-dimethyl-6-oxo-1,6-dihydropyridin-3-yl)-3-methyl-4,5-dihydropyrrolo-[3,4-c]pyrazol-6(1H)-one], the figures for the 50% growth inhibitory concentration (GI50) with MV-4-11 cells, in the experiment on THP-1 cells and with K-562 cells were 2000 nM, 2840 nM and greater than 10000 nM, respectively. For the same compound, the IC (TGI) in the experiment with K-562 cells is greater than 10000 nM.

With `COc1ncccc1-n1nc(C)c2c1C(=O)N(c1cc(C)c(=O)n(C)c1)[C@H]2c1ccc(Cl)cc1` [Example 127, (S)-4-(4-chlorophenyl)-5-(1,5-dimethyl-6-oxo-1,6-dihydropyridin-3-yl)-1-(2-methoxypyridin-3-yl)-3-methyl-4,5-dihydropyrrolo-[3,4-c]pyrazol-6(1H)-one], the concentration for 50% growth inhibition (GI50) was 2260 nM in the experiment with MV-4-11 cells, 4230 nM in the experiment with THP-1 cells and greater than 10000 nM with K-562 cells.

The values above are taken from patent US20160095843A1, “PYRAZOLOPYRROLIDINE DERIVATIVES AND THEIR USE IN THE TREATMENT OF DISEASE” (NOVARTIS AG, priority 2013, published 2016).
